In US12428666B2, “Compositions and methods related to kethoxal derivatives” (The University of Chicago, priority 2018, dated 2025):
“Also recorded” adds a separate entry of the source.

What was measured:
guanine = assay: Reaction of N3-kethoxal with RNA nucleic bases and RNA oligos (HPLC, MALDI-TOF); assay type: biochemical; settings: 12 mer RNA oligo with 4 guanines
Experimental: The reaction of N3-kethoxal and RNA was generally performed with the following protocol: 100 pmol RNA oligo and 1 μmol N3-kethoxal was incubated in total 10 μL solution in PBS buffer at 37° C. for 10 mins. […] The purified labelled RNA can be used for further studies such as mass spectrometry, gel electrophoresis and copper-free click reaction with biotin-DBCO.
MALDI-TOF-MS analysis of N3-kethoxal labelled RNA oligo. […] Meanwhile the buffer exchange occurred from PBS buffer to tris buffer that can be directly used in MALDI-TOF-MS experiment without extra desalt step. One microliter of product solution was mixed with one microliter matrix which include 8:1 volume ratio of 2′4′6′-trihydroxyacetophenone (THAP, 10 mg/mL in 50% CH3CN/H2O):ammonium citrate (50 mg/mL in H2O). Then the mixture was spotted on the MALDI sample plate, dried and analyzed by Bruker Ultraflextreme MALDI-TOF-TOF Mass Spectrometers.
The product of N3-kethoxal with for RNA nucleic bases was analyzed using LC-6AD (Shimadzu, Japan) HPLC instrument, which equipped with an Inertsil ODS-SP column ([…], 250×4.6 mm) (GL Science Inc. Japan). The phase A (100 mM TEAA buffer, pH=7.0) and phase B (CH3CN) were used as eluents with a flow rate of 1 mL/min at 35° C. (B conc.: 5-5-30%/0-5-30 min).

[1] = tested on: mRNA secondary structures in live cells; assay: KARRI after translation inhibitor treatment; assay type: cell-based; settings: 100 μg/mL cycloheximide or 3 μg/mL harringtonine, 37° C., 10 min
Experimental: KARRI is performed by: (1) Suspend live cells in 1% formaldehyde solution at 1×10^6/mL and incubate at room temperature for 10 min with gentle rotate. Then quench this reaction by adding glycine to a final concentration of 125 mM and rotate the mixture at room temperature for 5 min. For translation inhibitor treatment, cells were treated with 100 μg/mL cycloheximide or 3 μg/mL harringtonine at 37° C. for 10 min. (2) Collect and take 2×10^6 cells. Dilute N3-Kethoxal by 1:5 using DMSO. Make a labeling buffer by adding 10 μL N3-Kethoxal into 290 μL lysis buffer (10 mM Tris-HCl pH 8.0, 10 mM NaCl, 0.2 IGEPAL CA630) with 3 μL 100× proteinase inhibitor cocktail. (3) Suspend cells in labeling buffer and rotate at room temperature for 30 min, then centrifuge at 2500 g for 5 min at 4° C. to collect cells. (4) Wash cell pellets with 500 μL ice-cold lysis buffer for 3 times. (5) Suspend the pellet in 500 μL MeOH containing 10 μM dendrimers, rotate for 1 h at 37° C. Then centrifuge at 2500 g for 5 min at 4° C. to collect cells. (6) Wash cell pellet twice with 500 μL ice-cold lysis buffer. (7) Resuspend cells in 385 μL lysis buffer, add 50 μL 10% SDS, 30 μL proteinase K, 10 μL RNase inhibitor, 25 μL 500 mM K3BO3, shake at 65° C. for 2 h. (8) Add 500 μL phenol-chloroform to extract RNA and purify RNA by EtOH precipitation. […]

Pol II = assay: ssDNA-seq after Pol II inhibitor treatment; assay type: cell-based, human; settings: for ssDNA peak number: 2 h, control more than 43,000; for distribution of ssDNA-seq peaks on gene coding regions: after inhibitor treatment vs control
Experimental: N3-kethoxal enables genome-wide single-stranded DNA mapping (ssDNA-seq). Taking advantage of the sensitivity and the selectivity of N3-kethoxal towards single-stranded nucleic acids, the inventors first applied N3-kethoxal to map single-stranded regions of the genome, which has not been previously achieved. Human embryonic kidney (HEK) cells were cultured in N3-kethoxal-containing medium for 10 min to facilitate labelling before harvested. Genomic DNA was then purified and subjected to biotinylation reaction through “click” chemistry. Biotinylated DNA was purified and fragmented, followed by immunoprecipitation with streptavidin-coated beads. Enriched DNA and their corresponding inputs was used to make libraries, which were then sequenced and aligned.
ssDNA is performed by: (1) Prepare labeling medium by adding 5 μL pure N3-kethoxal to 5 mL pre-warmed cell culture medium for each 10 cm dish. (2) Incubate cells in the labeling medium for 10 min at 37° C., 5% CO2. (3) For transcription inhibition experiments, cells were treated for 2 h under 100 μM DRB or 1 μM triptolide before incubated in N3-kethoxal-containing medium. (4) Harvest cells after the 10 min incubation, isolate total DNA from cells by PureLink genomic DNA mini kit according to the manufacturer's protocol. (5) Suspend 5 μg total DNA in 85 μL H2O, then add 10 μL 10×PBS and 5 μL 20 mM DBCO-PEG4-biotin (DMSO solution), incubate the mixture at 37° C. for 2 h. (6) Add 5 μL RNase A to the reaction mixture, incubate the mixture at 37° C. for another 15 min. (7) Recover DNA from the reaction mixture by DNA Clean & Concentrator kit according to the manufacturer's protocol.

SMILES	effect on in vivo RNA secondary structures (KARRI) [1]	distribution of ssDNA-seq peaks on gene coding regions (Pol II)	also measured
Cc1ncccc1C(=O)n1ccnc1 [NAI, reference compound]	–	–	labelling of RNA oligo (MALDI-TOF molecular weight of product) (guanine): some oligoes were only reacted by one NAI and some were labelled by two or three
COC(=O)C[C@](O)(CCC(C)(C)O)C(=O)O[C@@H]1C(OC)=C[C@]23CCCN2CCc2cc4c(cc2[C@H]13)OCO4 [harringtonine]	undermined in vivo-specific structures and increased in vitro features; also recorded: in vivo-specific structures were undermined while some in vitro-specific features showed up	–	–
C[C@@H]1C[C@@H]([C@H](O)CC2CC(=O)NC(=O)C2)C(=O)[C@@H](C)C1 [cycloheximide]	undermined in vivo-specific structures and increased in vitro features	–	–
CC(C)[C@]12O[C@H]1[C@@H]1O[C@]13[C@]1(O[C@H]1C[C@H]1C4=C(CC[C@@]13C)C(=O)OC4)[C@@H]2O [Triptolide, triptolide]	–	most peaks on gene coding regions disappeared	ssDNA peak number (Pol II; 1 μM triptolide): ~3,700
OC[C@H]1O[C@@H](n2cnc3cc(Cl)c(Cl)cc32)[C@H](O)[C@@H]1O [DRB, 5,6-dichloro-1-β-D-ribofuranosylbenzimidazole]	–	Stronger peaks were observed at TSS while peaks on gene body and TES were eliminated	ssDNA peak number (Pol II; 100 μM DRB): around 16,000
